Patent US20160115540A1, “PRODRUGS AND DRUGS” (Biogen MA Inc., priority 2013, published 2016)
Structures can show the parent of a compound that is named as a salt.

Test system: kidney
Test: Transcriptional profiling on Affymetrix GeneChips, single dose, naïve mice: kidney
Type: in vivo, C57BL/6 mice
Settings: 100 DMF-vs-Veh, 2 h
Protocol: Treated mice were sacrificed at 2, 7, or 12 hours. Tissues (liver, spleen, kidney, jejunum, cortex, hippocampus, striatum and whole blood) were collected and analyzed by transcriptional profiling on mouse Affymetrix GeneChips.
Tissues (liver, spleen, kidney, jejunum, cortex, hippocampus, striatum and whole blood) were collected and analyzed by transcriptional profiling on mouse Affymetrix GeneChips.
Animals were exposed to CO2 and whole blood collected via cardiac puncture. Two 100 μl aliquots of whole blood were collected in 1.5 mL microcentrifuge tubes and snap frozen in liquid nitrogen. Peripheral (liver, spleen, kidney and jejunum) and CNS brain (cerebellum, hippocampus, striatum and cortex) tissues were harvested and snap frozen in liquid nitrogen, with special care taken to collect tissues of similar size and from the same location. All samples were stored at −80° C. until RNA extraction was conducted.
For RNA preparation, frozen tissues were placed in 2 mL RNAse-free 96-well blocks with 1.5 mL QIAzol Lysis Reagent (QIAgen) and a 3.2 mm stainless steel bead (BioSpec Products, Bartlesville, Okla.). Tissues were disrupted for four cycles of 45 seconds in a Mini-Beadbeater (Biospec Products). RNA was extracted in chloroform and the aqueous phase was mixed with an equal volume of 70% ethanol. Extracted RNA was applied to RNeasy 96 plates and purified by the spin method according to the manufacturer's protocol (RNeasy 96 Universal Tissue Protocol, QIAgen, Hilden Germany).
Automated sample amplifications and biotin labelings were carried out using the NuGEN Ovation RNA Amplification system V2 (Cat #3100), Ovation WB reagent (Cat #1300) and Encore Biotin module (Cat #4200) (NuGEN Technologies, Inc, San Carlos, Calif.) according to manufacturer's recommendations using an Arrayplex automated liquid handler (Beckman Coulter, Indianapolis, Ind.). Two micrograms of biotin labeled sscDNA probe were hybridized to Affymetrix GeneChip Affymetrix HT_MG-430_PM plate arrays with modified conditions as described in Allaire et al. Washing and staining of the hybridized arrays were completed as described in the GeneChip Expression analysis technical manual for HT plate arrays using the Genechip® Array Station (Affymetrix, Santa Clara, Calif.) with modifications as described in Allaire et al. The processed GeneChip® plate arrays were scanned using GeneTitan scanner (Affymetrix, Santa Clara, Calif.).
Affymetrix scans were subject to quality control (QC) measures. These tests included a visual inspection of the distribution of raw signal intensities and an assessment of RNA degradation, relative log expression (RLE), and normalized unsealed standard error (NUSE). All sample scans that passed these QC metrics were included in the analysis.
All CEL files were subjected to GC-content-based Robust Multi-array Average (GCRMA) normalization (version 2.20.0) (Irizarry R A, et al. Nucleic Acids Res 2003; 31:e15; Li C, et al. Genome Biol 2001; 2:[…]0032). Expression levels were log (base 2) transformed.
All calculations and analyses were carried out using R (version 2.11.1) and Bioconductor computational tools (Gentleman R. Springer Science+Business Media 2005).

Compound: COC(=O)/C=C/C(=O)OC [DMF, dimethyl fumarate]
- FC 1200016B10Rik 1428654_PM_at: 1.59
- FC 1200016B10Rik 1452859_PM_at: 1.62
- FC 1438879_PM_at: −1.61
- FC 1439292_PM_at: 2.14
- FC 1440076_PM_at: 3.71
- FC 1440084_PM_at: −1.57
- FC 1440304_PM_at: −1.68
- FC 1440457_PM_at: 1.76
- FC 1440660_PM_at: −1.56
- FC 1441155_PM_at: 1.51
- FC 1441360_PM_at: 1.55
- FC 1441413_PM_at: 1.88
- FC 1441455_PM_at: 1.58
- FC 1441482_PM_at: −2.08
- FC 1441484_PM_at: −1.79
- FC 1441518_PM_at: −1.67
- FC 1441794_PM_at: −1.72
- FC 1442422_PM_at: 1.74
- FC 1442483_PM_at: −1.59
- FC 1442504_PM_at: −1.70
- FC 1442506_PM_at: 5.76
- FC 1442671_PM_at: 1.55
- FC 1442725_PM_at: −1.53
- FC 1442928_PM_at: 1.66
- FC 1443100_PM_at: −1.63
- FC 1443109_PM_at: 1.69
- FC 1443289_PM_at: −1.65
- FC 1443335_PM_at: −1.78
- FC 1443546_PM_at: 1.74
- FC 1443566_PM_at: −1.76
- FC 1443673_PM_x_at: 2.06
- FC 1444021_PM_at: 3.24
- FC 1444057_PM_at: 1.75
- FC 1444111_PM_at: −1.67
- FC 1444212_PM_at: 1.57
- FC 1444227_PM_at: 1.56
- FC 1444265_PM_at: 1.93
- FC 1445290_PM_at: −1.52
- FC 1445349_PM_at: −1.70
- FC 1445600_PM_at: −1.65
- FC 1445664_PM_at: −1.60
- FC 1446075_PM_at: −1.62
- FC 1446172_PM_at: 1.85
- FC 1446621_PM_at: 1.74
- FC 1446921_PM_at: 1.58
- FC 1447172_PM_at: −1.61
- FC 1447396_PM_at: −1.90
- FC 1447411_PM_at: 4.68
- FC 1700012D14Rik 1438880_PM_at: −1.55
- FC 1810013L24Rik 1431018_PM_at: 1.50
- FC 2200002K05Rik 1428400_PM_at: −1.79
- FC 2210403K04Rik 1428562_PM_at: 1.86
- FC 2210416J07Rik 1432665_PM_at: −1.87
- FC 2410089E03Rik 1443422_PM_at: −1.72
- FC 2810029C07Rik 1428686_PM_at: −1.58
- FC 2900011L18Rik 1432757_PM_at: 1.62
- FC 4833418N02Rik 1430686_PM_at: −1.51
- FC 4921509J17Rik 1430244_PM_at: 1.60
- FC 4932416J16Rik 1430783_PM_at: −1.67
- FC 4933427G17Rik 1431905_PM_s_at: −1.65
- FC 5830487K18Rik 1432625_PM_at: −1.90
- FC 6430571L13Rik 1439669_PM_at: −1.85
- FC 9130221J17Rik (1443159_PM_at): 9.22
- FC 9530086O07Rik 1430392_PM_at: −1.52
- FC A130012E19Rik 1440671_PM_at: 1.56
- FC AI845619 1442726_PM_s_at: 5.44
- FC Aars 1451083_PM_s_at: 1.53
- FC Abce1 1442071_PM_at: 1.53
- FC Acvr2b 1419140_PM_at: −1.51
- FC Adamts1 1450716_PM_at: 1.86
- FC Adamts15 1427056_PM_at: −2.26
- FC Ahsa2 1435160_PM_at: 1.64
- FC Aldh2 1437410_PM_at: 1.69
- FC Alkbh1 1434660_PM_at: 1.53
- FC Anxa7 1438764_PM_at: 1.88
- FC Aox1 (1419435_PM_at): 2.46
- FC Arl5b 1437884_PM_at: 1.93
- FC Arpc5l 1441190_PM_at: 1.70
- FC Asns 1433966_PM_x_at: 2.54
- FC Asns 1451095_PM_at: 3.03
- FC Atf4 1438992_PM_x_at: 1.77
- FC Atf4 1448135_PM_at: 2.12
- FC Atp1a2 1452308_PM_a_at: 1.84
- FC BC005512 /// F630007L15Rik /// Gm6958 1426936_PM_at: −1.67
- FC BC005512 /// F630007L15Rik /// Gm6958 1435628_PM_x_at: −1.72
- FC BC026585 1445857_PM_at: −1.51
- FC BC031353 1439293_PM_at: −1.84
- FC Bach1 1440831_PM_at: 1.90
- FC Bach1 1449311_PM_at: 2.55
- FC Bag3 1422452_PM_at: 2.03
- FC Baiap2 1425656_PM_a_at: 1.51
- FC Baz1a 1433599_PM_at: 2.51
- FC Baz1a /// LOC100505185 1447930_PM_at: 2.56
- FC Bcl11b 1438784_PM_at: −1.52
- FC Brd2 1423502_PM_at: 1.83
- FC Brd2 1437210_PM_a_at: 2.07
- FC Btbd10 1438578_PM_a_at: 1.60
- FC C730027H18Rik 1442546_PM_at: −1.57
- FC Cars 1452394_PM_at: 1.63
- FC Cbr3 (1427912_PM_at): 3.04
- FC Ccdc30 1430593_PM_at: −2.01
- FC Ccdc117 1452218_PM_at: 1.54
- FC Cenpe 1435005_PM_at: −2.20
- FC Chac1 1451382_PM_at: 31.00
- FC Chd1 1420990_PM_at: 1.76
- FC Chd1 1450077_PM_at: 1.67
- FC Cltc 1439094_PM_at: 2.07
- FC Cyp27b1 1427372_PM_at: −3.22
- FC Cyr61 1438133_PM_a_at: 2.64
- FC D16Ertd778e 1445089_PM_at: −2.60
- FC Dcbld1 1418966_PM_a_at: 1.78
- FC Ddit3 1443897_PM_at: 3.97
- FC Dnaja4 1434196_PM_at: 1.63
- FC Dnajb4 1431734_PM_a_at: 2.15
- FC Dnajb4 1451177_PM_at: 2.48
- FC Dusp4 1428834_PM_at: 2.09
- FC Dusp5 1437199_PM_at: 3.68
- FC E130306D19Rik 1436725_PM_at: −1.64
- FC Eid3 1429350_PM_at: 1.84
- FC Eif2c3 1435904_PM_at: 1.53
- FC Esd (1441604_PM_at): 1.62
- FC Fam126a 1450724_PM_at: 1.70
- FC Fbxo30 1436550_PM_at: 1.81
- FC Fgd3 1433398_PM_at: 1.66
- FC Fgf1 1441042_PM_at: −2.91
- FC Fgfbp1 1419086_PM_at: 1.81
- FC Fn3k 1442436_PM_at: −1.60
- FC Fras1 1440765_PM_at: −1.73
- FC Gadd45a 1449519_PM_at: 1.75
- FC Gclc (1424296_PM_at): 1.70
- FC Gdap10 1420342_PM_at: 1.52
- FC Gdf15 1418949_PM_at: 5.39
- FC Gm10374 1436357_PM_at: −1.52
- FC Gm10804 1441759_PM_at: −1.67
- FC Gsta3 (1423437_PM_at): 2.01
- FC Gt(ROSA)26Sor 1452239_PM_at: 1.62
- FC Hectd2 1433944_PM_at: 1.67
- FC Hinfp 1440255_PM_at: 1.57
- FC Hk2 1422612_PM_at: 2.72
- FC Hmox1 1448239_PM_at: 6.27
- FC Hnf1b 1421224_PM_a_at: −1.77
- FC Hnf1b 1451687_PM_a_at: −1.82
- FC Hsp90aa1 1426645_PM_at: 1.64
- FC Hsp90aa1 1437497_PM_a_at: 1.55
- FC Hspa1a 1452388_PM_at: 2.35
- FC Hspa1b 1427126_PM_at: 3.65
- FC Hspa1b 1427127_PM_x_at: 3.37
- FC Hspa1b 1452318_PM_a_at: 1.70
- FC Hspa4l 1439093_PM_at: 1.67
- FC Hspa8 /// LOC624853 1431182_PM_at: 2.63
- FC Hsph1 1423566_PM_a_at: 2.40
- FC Igf1r 1446303_PM_at: −1.66
- FC Jmjd6 1420056_PM_s_at: 1.52
- FC Jmjd6 1420057_PM_at: 1.54
- FC Jun 1448694_PM_at: 1.50
